From patent US20230220206A1, “REJUVENATING AGENTS FOR ASPHALT RECYCLING” (BASF SE, priority 2020, published 2023)
Like-named read-outs stand apart in the source and are kept apart here.

Tests used:
[1] = MSCR elastic recovery of rejuvenated aged bitumen; format: physicochemical; conditions: aged bitumen 50/70 PCK Schwedt + 5% compound
[2] = MSCR elastic recovery of rejuvenated polymer-modified bitumen; format: physicochemical; conditions: Olexobit 45 + 5% compound
[3] = format: physicochemical; conditions: aged bitumen 50/70 BP + 5% compound
[4] = Softening point of rejuvenated polymer-modified bitumen; format: physicochemical; conditions: Olexobit 45 + 5% compound
[5] = bitumen 20/30 + 5% compound
[6] = TD NMR relaxation time measurements (SE-CPMG, multicomponent fitting); format: physicochemical; conditions: for 1/<1/T2e>: harmonic average relaxation time of the mobile components
Excerpt: TD NMR, also known as NMR relaxometry, is a known NMR technique and relies on measuring the relaxation times of the nuclear spin system instead of frequency-domain spectra. […] Also, sample preparation is much simpler as there are no concerns about sample homogeneity and no solvents are needed.
Like that, a clear distinction between protons in a solid, amorphous and liquid component can be made with good accuracy.
Bitumen 20/30 was rejuvenated with some of the here claimed rejuvenating agents according to example 1. The pure bitumen 20/30 as well as the rejuvenated bitumen 20/30 samples were then analyzed by TD NMR. To do so, all samples were heated up to 80° C. to allow filling of the samples into NMR tubes. After that, TD NMR measurements at 30° C., 80° C. and 140° C. were conducted using the SE-CMPG sequence. This sequence consists of a solid echo combined with a so-called CPMG (Carr-Purcell-Meiboom-Gill) train of subsequent spin echoes with alternating phase and is capable of recording the decay of coherence in the transverse nuclear magnetization over about 5 orders of magnitude in time. Depending on the measurement temperature, the experimental data were then fitted with semi-empirically selected multicomponent models involving several Gaussian and exponential components:
S(t)=[pg1 exp(−(t/T2g1)^2)+pg2 exp(−(t/T2g2)^2)]+pe1 exp(−t/T2e1)[pe2 exp(−t/T2e2)+pe3 exp(−t/T2e3)]
In order to assess the effect of temperature on the molecular mobility of the bitumen, experiments were conducted at temperatures of 30° C., 80° C. and 140° C., and the following models turned out to provide adequate fits of the respective normalized signal decay curves: • two Gaussians and one exponential at 30° C., • two Gaussians and two exponentials at 80° C., • three exponentials at 140° C.
From the fitting, different values can be obtained: • The p values (pg1, pg2, pe1, pe2 and pe3), indicating the signal fraction of the individual component scaled in the range from 0 to 1 • The T2 values (T2g1, T2g2, T2e1, T2e2 and T2e3), indicating the relaxation times that correspond to each of the individual components. The longer the relaxation time, the higher the molecular mobility of the respective component • In addition to the values T2e1, T2e2 and T2e3, we also calculated the average relaxation time of the mobile components, 1/<1/T2e>, for the temperatures at which more than one mobile component exist (80 and 140° C.). 1/<1/T2e> Is calculated as the harmonic average of the relaxation times involved:
[formula] • The type of the component, those being: • g1: the rigid component • g2: the partially mobile component • e1, e2 and e3: mobile components with increasingly high local molecular mobilities
It is believed that the rigid component g1 is directly correlated with the amount of the asphaltene aggregates. The mobile component(s) on the other hand can be attributed to the maltene phase.

[7] = format: physicochemical; conditions: aged bitumen 50/70 PCK Schwedt + 5% compound
[8] = BBR of rejuvenated polymer-modified bitumen; format: physicochemical; conditions: Olexobit 45 + 5% compound
Method: Different bitumen samples were rejuvenated as in Example 1, and the BBR values S (flexural creep stiffness) and m […] were evaluated at −16° C. The results were compared to the not rejuvenated bitumen sample as well as to the bitumen rejuvenated with the benchmark RheoFalt® HP-AM (Comp. 1.3).

[9] = MSCR elastic recovery of rejuvenated aged bitumen; format: physicochemical; conditions: aged bitumen 50/70 BP + 5% compound
[10] = MSCR elastic recovery of rejuvenated RAP bitumen; format: physicochemical; conditions: bitumen extracted from RAP + 5% compound
[11] = Softening point of rejuvenated aged bitumen; format: physicochemical; conditions: aged bitumen 50/70 BP + 5% compound
[12] = Softening point of rejuvenated aged bitumen; format: physicochemical; conditions: aged bitumen 50/70 PCK Schwedt + 5% compound
[13] = Force ductility of rejuvenated polymer-modified bitumen; format: physicochemical; conditions: Olexobit 45 + 5% compound
Excerpt: (§1) Herewith, it will be shown that the positive effects of the here claimed rejuvenating agents can also be applied to PmB, in this case Olexobit 45. Olexobit 45 was therefore rejuvenated according to the procedure of Example 1.

[14] = Softening point of rejuvenated RAP bitumen; format: physicochemical; conditions: bitumen extracted from RAP + 5% compound
[15] = format: physicochemical; conditions: bitumen extracted from RAP + 5% compound
[16] = Ageing index (RTFOT ageing) of rejuvenated polymer-modified bitumen; format: physicochemical; conditions: Olexobit 45 + 5% compound; viscosity after ageing divided by viscosity before ageing
Excerpt: as §1

[17] = Softening point ring & ball of rejuvenated bitumen; conditions: bitumen 20/30 rejuvenated with 5% of the compound, 180° C., 30 minutes
[18] = MSCR test, percentage elastic recovery; format: physicochemical; conditions: bitumen 20/30 + 5% compound
[19] = 30° C., bitumen 20/30 + additive
[20] = 80° C., bitumen 20/30 + additive
[21] = 140° C., bitumen 20/30 + additive

MSCR % Rec. (0.1 kPa) ([1]; 0.1 kPa): 5%
MSCR % Rec. (1.6 kPa) ([1]; 1.6 kPa): 1%
MSCR % Rec. (3.2 kPa) ([1]; 3.2 kPa): 0%
MSCR % Rec. (0.1 kPa) ([2]; 0.1 kPa): 15%
MSCR % Rec. (1.6 kPa) ([2]; 1.6 kPa): 4%
MSCR % Rec. (3.2 kPa) ([2]; 3.2 kPa): 1%
η(135° C.) [mPas] [3]: 800 mPas
SP [° C.] [4]: 48.0 °C
η(135° C.) [mPas] [5]: 900 mPas
T2e1 [6, 19]: 0.20 ms
T2g1 [6, 19]: 0.016 ms
T2g2 [6, 19]: 0.044 ms
pe1 ([6]; 30° C., mobile component, bitumen 20/30 + additive): 0.41
pg2 ([6]; 30° C., partially mobile component, bitumen 20/30 + additive): 0.18
pg1 ([6]; 30° C., signal fraction of rigid component, bitumen 20/30 + additive): 0.40
T2e1 [6, 20]: 0.47 ms
T2e2 [6, 20]: 2.42 ms
T2g1 [6, 20]: 0.017 ms
T2g2 [6, 20]: 0.053 ms
pe1 [6, 20]: 0.46
pe2 [6, 20]: 0.35
pg1 [6, 20]: 0.10
pg2 [6, 20]: 0.078
1/<1/T2e> ([6]; 80° C.): 0.72 ms
T2e1 [6, 21]: 0.20 ms
T2e2 [6, 21]: 4.45 ms
T2e3 [6, 21]: 24.51 ms
pe1 [6, 21]: 0.18
pe2 [6, 21]: 0.47
pe3 [6, 21]: 0.34
1/<1/T2e> ([6]; 140° C.): 0.94 ms
η(135° C.) [mPas] [7]: 800 mPas
BBR S-value [MPa] [8]: 120 MPa
BBR m-value [8]: 0.39
MSCR % Rec. (0.1 kPa) ([9]; 0.1 kPa): 7%
MSCR % Rec. (1.6 kPa) ([9]; 1.6 kPa): 3%
MSCR % Rec. (3.2 kPa) ([9]; 3.2 kPa): 1%
MSCR % Rec. (0.1 kPa) ([10]; 0.1 kPa): 10%
MSCR % Rec. (1.6 kPa) ([10]; 1.6 kPa): 6%
MSCR % Rec. (3.2 kPa) ([10]; 3.2 kPa): 3%
SP [° C.] [11]: 54.0 °C
SP [° C.] [12]: 52.5 °C
Force Ductility Fmax [N] [13]: 14 N
Force Ductility W [J/cm^2] [13]: 1.1 J/cm^2
SP [° C.] [14]: 57.0 °C
η(135° C.) [mPas] [15]: 1,100 mPas
AI (ageing index) [16]: 2.2
SP [° C.] (softening point) [17]: 50.0 °C
MSCR % Rec. (0.1 kPa) ([18]; 0.1 kPa): 8%
MSCR % Rec. (1.6 kPa) ([18]; 1.6 kPa): 2%
MSCR % Rec. (3.2 kPa) ([18]; 3.2 kPa): 1%
Substance: Polypropylenglycol bis glycidylether
